The values below come from doi:10.1101/2025.10.14.682402v1 (biorxiv, 2025).

The target in experiment [1] is T1, ULK1 (Homo sapiens, UniProt O75385).
T1 sequence (O75385 1-1050): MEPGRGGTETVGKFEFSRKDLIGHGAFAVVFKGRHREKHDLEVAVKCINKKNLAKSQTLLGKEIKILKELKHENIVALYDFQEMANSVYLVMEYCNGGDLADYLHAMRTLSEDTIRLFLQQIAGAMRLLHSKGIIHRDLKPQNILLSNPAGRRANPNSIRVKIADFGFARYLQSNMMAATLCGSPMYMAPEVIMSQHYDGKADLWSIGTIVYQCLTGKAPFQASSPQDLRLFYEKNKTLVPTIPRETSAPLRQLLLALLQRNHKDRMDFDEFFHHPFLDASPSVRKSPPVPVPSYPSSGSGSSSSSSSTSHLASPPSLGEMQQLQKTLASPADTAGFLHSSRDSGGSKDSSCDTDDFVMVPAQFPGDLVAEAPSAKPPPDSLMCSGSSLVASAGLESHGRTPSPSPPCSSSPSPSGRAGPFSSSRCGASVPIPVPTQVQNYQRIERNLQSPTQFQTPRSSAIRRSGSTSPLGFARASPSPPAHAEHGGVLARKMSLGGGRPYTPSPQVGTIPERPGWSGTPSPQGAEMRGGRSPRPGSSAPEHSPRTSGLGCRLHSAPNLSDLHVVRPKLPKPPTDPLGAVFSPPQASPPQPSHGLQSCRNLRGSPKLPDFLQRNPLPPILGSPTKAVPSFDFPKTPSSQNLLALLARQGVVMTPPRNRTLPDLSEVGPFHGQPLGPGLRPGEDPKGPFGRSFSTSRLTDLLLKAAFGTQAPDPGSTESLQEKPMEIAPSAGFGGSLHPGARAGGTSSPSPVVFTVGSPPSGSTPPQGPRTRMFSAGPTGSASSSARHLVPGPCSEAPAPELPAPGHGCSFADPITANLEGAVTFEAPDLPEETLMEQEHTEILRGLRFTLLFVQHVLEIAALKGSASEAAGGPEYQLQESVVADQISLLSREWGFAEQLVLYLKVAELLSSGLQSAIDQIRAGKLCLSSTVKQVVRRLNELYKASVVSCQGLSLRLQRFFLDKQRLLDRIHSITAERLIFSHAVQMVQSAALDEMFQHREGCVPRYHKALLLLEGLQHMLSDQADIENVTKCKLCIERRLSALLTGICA
Description: ADP-Glo kinase assay. The format is biochemical. Background: ADP-Glo turns the ADP formed in a reaction into a luminescent signal.

The target in a further experiment is T2, ULK2 (Homo sapiens, UniProt Q8IYT8).
T2 sequence (Q8IYT8 1-1036): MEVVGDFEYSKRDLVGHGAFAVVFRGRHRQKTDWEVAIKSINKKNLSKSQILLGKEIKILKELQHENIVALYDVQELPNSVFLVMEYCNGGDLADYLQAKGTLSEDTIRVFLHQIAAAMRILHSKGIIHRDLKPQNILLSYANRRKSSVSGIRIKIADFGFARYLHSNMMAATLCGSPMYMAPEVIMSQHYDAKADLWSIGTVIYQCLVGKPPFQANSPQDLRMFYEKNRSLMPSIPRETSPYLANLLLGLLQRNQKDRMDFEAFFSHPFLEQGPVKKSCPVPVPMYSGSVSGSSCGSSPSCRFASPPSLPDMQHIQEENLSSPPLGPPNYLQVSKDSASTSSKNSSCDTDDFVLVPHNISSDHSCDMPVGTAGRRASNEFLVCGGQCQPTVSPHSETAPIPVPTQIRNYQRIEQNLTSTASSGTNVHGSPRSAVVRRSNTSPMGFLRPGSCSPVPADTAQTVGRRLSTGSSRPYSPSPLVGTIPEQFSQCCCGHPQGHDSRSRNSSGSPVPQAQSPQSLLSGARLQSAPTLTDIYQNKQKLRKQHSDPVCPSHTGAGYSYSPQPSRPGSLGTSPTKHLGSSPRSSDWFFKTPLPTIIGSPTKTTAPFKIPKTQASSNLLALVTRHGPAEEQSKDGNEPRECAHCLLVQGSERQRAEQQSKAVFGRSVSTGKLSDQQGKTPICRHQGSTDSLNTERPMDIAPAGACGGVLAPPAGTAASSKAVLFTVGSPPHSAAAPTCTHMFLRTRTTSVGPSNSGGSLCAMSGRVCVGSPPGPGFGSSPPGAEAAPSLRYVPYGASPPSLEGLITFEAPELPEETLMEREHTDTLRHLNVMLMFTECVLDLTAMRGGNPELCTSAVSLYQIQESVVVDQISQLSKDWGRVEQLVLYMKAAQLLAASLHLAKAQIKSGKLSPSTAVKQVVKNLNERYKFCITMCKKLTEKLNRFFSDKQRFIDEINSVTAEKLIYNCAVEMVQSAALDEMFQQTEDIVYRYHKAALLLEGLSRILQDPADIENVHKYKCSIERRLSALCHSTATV
Nature of the experiment: biochemical.

Another experiment deals with T3, kinase domain of ULK1 (Homo sapiens, UniProt O75385).
T3 sequence (O75385 1-283 limits assumed): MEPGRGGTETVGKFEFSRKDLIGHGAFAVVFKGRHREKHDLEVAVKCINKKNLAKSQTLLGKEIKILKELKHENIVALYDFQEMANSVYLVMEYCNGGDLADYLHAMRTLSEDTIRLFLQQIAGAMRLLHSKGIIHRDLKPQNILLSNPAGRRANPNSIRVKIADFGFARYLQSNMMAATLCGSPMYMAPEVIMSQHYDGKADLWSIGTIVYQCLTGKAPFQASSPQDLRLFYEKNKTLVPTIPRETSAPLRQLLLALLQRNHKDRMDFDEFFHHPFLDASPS
The following applies: binder.

For a further experiment, the target named is T4, kinase domain of ULK2 (Homo sapiens, UniProt Q8IYT8).
T4 sequence (Q8IYT8 1-276 limits assumed): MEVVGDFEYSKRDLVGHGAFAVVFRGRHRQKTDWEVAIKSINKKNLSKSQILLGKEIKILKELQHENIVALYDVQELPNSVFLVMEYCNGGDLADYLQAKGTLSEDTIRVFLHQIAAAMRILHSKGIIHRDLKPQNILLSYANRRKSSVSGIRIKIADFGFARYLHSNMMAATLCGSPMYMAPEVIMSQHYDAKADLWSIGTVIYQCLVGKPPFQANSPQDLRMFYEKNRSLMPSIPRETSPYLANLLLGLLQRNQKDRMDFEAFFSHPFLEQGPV
As to conditions: binder.

In experiment [2] the target is T1, ULK1. Description: biochemical.
The target in the next experiment is T5, ULK1 (NanoBRET) (Homo sapiens, UniProt O75385).
T5 sequence (O75385 1-1050): T1 sequence (O75385 1-1050)
Nature of the experiment: NanoBRET cellular target engagement. The format is cell-based. For orientation: Bioluminescence resonance energy transfer reports proximity on the nanometre scale.

For the compound `CNC(=O)c1ccccc1Nc1nc(Nc2ccc3c(c2)OCCO3)ncc1Cl` [6j, 2-(5-Chloro-2-(2,3-dihydrobenzo[b][1,4]dioxin-6-ylamino)pyrimidin-4-ylamino)-N-methylbenzamide], the IC50 was 0.218 µM on ULK1 [1] and greater than 3 µM at ULK2. Also, the “ULK1 PTS (ºC)” value on kinase domain of ULK1 is 6.05 ± 0.13 °C. Also, the “ULK2 PTS (ºC)” value on kinase domain of ULK2 came out at 4.43 ± 0.33 °C.
Turning to `CNC(=O)c1ccccc1Nc1nc(Nc2ccc(N3CCOCC3)cc2OC)ncc1C(F)(F)F` [6c, 2-(2-(2-Methoxy-4-morpholinophenylamino)-5-(trifluoromethyl)pyrimidin-4-ylamino)-N-methylbenzamide], the concentration for half-maximal inhibition (IC50) was determined as 0.062 µM against ULK1 [1] and 1.34 ± 0.198 µM against ULK2. In addition, on kinase domain of ULK1, the “ULK1 PTS (ºC)” value was determined as 6.55 ± 0.12 °C. Moreover, the “ULK2 PTS (ºC)” value at kinase domain of ULK2 worked out at 6.50 ± 0.09 °C.
Regarding `CNC(=O)c1ccccc1Nc1nc(Nc2ccc3c(c2)CC(=O)N3)ncc1Cl` [6f, 2-(5-Chloro-2-(2-oxoindolin-5-ylamino)pyrimidin-4-ylamino)-N-methylbenzamide], the IC50 against ULK1 [1] was 0.021 µM; on ULK2 it was greater than 3 µM. In addition, the “ULK1 PTS (ºC)” value at kinase domain of ULK1 was found to be 0.20 ± 0.13 °C. The “ULK2 PTS (ºC)” value at kinase domain of ULK2 was found to be 0.48 ± 0.06 °C.
Consider `CNC(=O)c1ccccc1Nc1nc(Nc2ccc(N3CCOCC3)cc2OC)ncc1Br` [6b, 2-(5-Bromo-2-(2-methoxy-4-morpholinophenylamino)pyrimidin-4-ylamino)-N-methylbenzamide], for which the IC50 is 0.141 µM on ULK1 [1] and greater than 3 µM against ULK2. Besides, the “ULK1 PTS (ºC)” value at kinase domain of ULK1 was determined as 5.60 ± 0.23 °C. At kinase domain of ULK2, the “ULK2 PTS (ºC)” value turned out to be 4.13 ± 0.02 °C.
`CNC(=O)c1ccccc1Nc1nc(Nc2cc(OC)ccc2C)ncc1Cl` [6k, 2-(5-Chloro-2-(5-methoxy-2-methylphenylamino)pyrimidin-4-ylamino)-N-methylbenzamide]: the values for the IC50 against ULK1 [1] and against ULK2 were 0.292 µM and 0.893 ± 0.454 µM, respectively. The “ULK1 PTS (ºC)” value on kinase domain of ULK1 was 5.75 ± 0.12 °C. In addition, the “ULK2 PTS (ºC)” value at kinase domain of ULK2 came out at 3.38 ± 0.14 °C.
Take `CNC(=O)c1ccccc1Nc1nc(Nc2ccc3[nH]ccc3c2)ncc1Br` [6h, 2-(2-(1H-indol-5-ylamino)-5-bromopyrimidin-4-ylamino)-N-methylbenzamide]: the IC50 is 0.006 ± 0.001 µM against ULK1 [2] and greater than 3 µM against ULK2. The “ULK1 PTS (ºC)” value on kinase domain of ULK1 was determined as 8.08 ± 0.53 °C. Further, the “ULK2 PTS (ºC)” value on kinase domain of ULK2 turned out to be 7.49 ± 0.46 °C.
Regarding `FC(F)(F)c1cnc(Nc2ccc3c(c2)CCNC3)nc1NC1CC1` [SBP-5147, reference compound], on ULK1 (NanoBRET), the IC50 came to 0.047 ± 0.011 µM.
Consider `CNC(=O)c1ccccc1Nc1nc(Nc2cc3c(cc2C)OCO3)ncc1Cl` [6i, 2-(5-Chloro-2-(6-methylbenzo[d][1,3]dioxol-5-ylamino)pyrimidin-4-ylamino)-N-methylbenzamide], for which the results for the IC50 on ULK1 [2] and against ULK2 were 2.7 ± 1.78 µM and greater than 3 µM, respectively. The “ULK1 PTS (ºC)” value at kinase domain of ULK1 was found to be 3.37 ± 0.38 °C. In addition, at kinase domain of ULK2, the “ULK2 PTS (ºC)” value amounted to 2.45 ± 0.20 °C.
For `CNC(=O)c1ccccc1Nc1nc(Nc2cccc(OC)c2)ncc1Cl` [6n, 2-(5-Chloro-2-(3-methoxyphenylamino)pyrimidin-4-ylamino)-N-methylbenzamide], in that order: 0.05 ± 0.025 µM, greater than 3 µM, 6.53 ± 0.87 °C and 1.38 ± 0.33 °C.
As to `CNC(=O)c1ccccc1Nc1nc(Nc2cc(OC)ccc2C)ncc1C(F)(F)F` [6l, 2-(2-(5-Methoxy-2-methylphenylamino)-5-(trifluoromethyl)pyrimidin-4-ylamino)-N-methylbenzamide], the values for the IC50 at ULK1 [1] and against ULK2 were 0.038 µM and 1.96 ± 0.101 µM, respectively. Also, the “ULK1 PTS (ºC)” value at kinase domain of ULK1 turned out to be 8.90 ± 0.17 °C. In addition, the “ULK2 PTS (ºC)” value at kinase domain of ULK2 is 7.08 ± 0.25 °C.
As for `O=C1CCc2cc(Nc3ncc(C(F)(F)F)c(NC4CC4)n3)ccc2N1` [SBP-7501, reference compound], on ULK1 (NanoBRET), the midpoint of inhibition, the IC50, lay at 0.167 ± 0.031 µM.
In the case of `CNC(=O)c1ccccc1Nc1nc(Nc2cc(OC)ccc2C)ncc1Br` [6m, 2-(5-Bromo-2-(5-methoxy-2-methylphenylamino)pyrimidin-4-ylamino)-N-methylbenzamide], the figures for the IC50 against ULK1 [1] and on ULK2 were 0.032 µM and greater than 3 µM, respectively. For the same compound, the “ULK1 PTS (ºC)” value on kinase domain of ULK1 amounted to 6.78 ± 0.13 °C. Further, the “ULK2 PTS (ºC)” value on kinase domain of ULK2 came to 4.28 ± 0.19 °C.
With `CNC(=O)c1ccccc1Nc1nc(Nc2ccc3[nH]ccc3c2)ncc1Cl` [6g, 2-(2-(1H-indol-5-ylamino)-5-chloropyrimidin-4-ylamino)-N-methylbenzamide], the values for the IC50 against ULK1 [2] and at ULK2 were 0.094 ± 0.043 µM and greater than 3 µM, respectively. In addition, the “ULK1 PTS (ºC)” value on kinase domain of ULK1 is 6.78 ± 0.19 °C. At kinase domain of ULK2, the “ULK2 PTS (ºC)” value amounted to 5.86 ± 0.12 °C.
In turn, SBP-7455 [reference compound] yielded an IC50 on ULK1 (NanoBRET) of 0.328 ± 0.043 µM.
For `CNC(=O)c1ccccc1Nc1nc(Nc2cc(N3CCOCC3)cc(N3CCOCC3)c2)ncc1Br` [6t, 2-(5-Bromo-2-(3,5-dimorpholinophenylamino)pyrimidin-4-ylamino)-N-methylbenzamide], the figures for the concentration for half-maximal inhibition (IC50) on ULK1 [2] and against ULK2 were 0.008 ± 0.001 µM and 0.059 ± 0.006 µM, respectively. Moreover, the “ULK1 PTS (ºC)” value on kinase domain of ULK1 amounted to 16.83 ± 0.12 °C. Moreover, the “ULK2 PTS (ºC)” value on kinase domain of ULK2 is 16.23 ± 0.15 °C.
With `CNC(=O)c1ccccc1Nc1nc(Nc2cc(N3CCOCC3)cc(N3CCOCC3)c2)ncc1Cl` [6s, 2-(5-Chloro-2-(3,5-dimorpholinophenylamino)pyrimidin-4-ylamino)-N-methylbenzamide], the IC50 against ULK1 [2] was found to be 0.038 ± 0.004 µM; against ULK2 it was 0.18 ± 0.009 µM. In addition, the “ULK1 PTS (ºC)” value on kinase domain of ULK1 was determined as 13.28 ± 0.40 °C. Moreover, the “ULK2 PTS (ºC)” value on kinase domain of ULK2 is 11.50 ± 0.27 °C.

As a reminder, the IC50 is the point on the concentration scale where inhibition reaches its midpoint.
